Several values for one entry are separate records, joined by “and”; a condition that tells them apart may be missing. Equal entries are not always repeated.
Key:
[1] = biological target: N,N′-diacetyl-Lys-D-Ala-D-Ala; test: ITC, 10 C, 0 uM HSA
[2] = biological target: N,N′-diacetyl-Lys-D-Ala-D-Ala; test: ITC, 25 C, 0 uM HSA
[3] = biological target: N,N′-diacetyl-Lys-D-Ala-D-Ala; test: ITC, 25 C, with 513 uM HSA
D-Ala-D-Ala = test: ITC of binding to dipeptide; settings: absence of serum proteins
Description: (§1) Trans. R. Soc. Lond. Ser. A-Math. Phys. Eng. […] Wiley, (1998) p 103-111; and Cooper, A., Curr. Opin. Chem. Biol. (1999) 3, 557-563.

Lys-D-Ala-D-Lactate = test: ITC of binding to Lys-D-Ala-D-Lactate; settings: absence of serum proteins
Description: as §1

[4] = tested on: N,N′-diacetyl-Lys-D-Ala-D-Ala; test: ITC of binding to tri-peptide, with and without HSA
Description: Antibiotics and peptides were dissolved in aqueous buffer (20 mM Na phosphate, 150 mM NaCl, pH 7.4) containing HSA, with gentle stirring immediately before each experiment. Peptide concentrations were determined by weight. […] HSA concentrations were determined by UV absorbance (HSA, ε280=37,700; A280^1%=5.44). Spectra were recorded at room temperature in 1 cm pathlength quartz cuvettes using Shimadzu UV-160A or UV-1601 spectrophotometers, with samples diluted quantitatively with buffer if necessary to give absorbance in the 0.1-1 A range.
Isothermal titration calorimetry was performed using a Microcal VP-ITC instrument at 25° C. and 37° C. using standard operating procedures. […] Samples were degassed gently prior to loading to prevent bubble formation in the calorimeter cell.

[5] = Multimer to monomer population by electrospray ion mass spectroscopy; format: physicochemical; settings: dalbavancin 0.1 mg/ml in 8:2 water:isopropanol; teicoplanin 50 and 100 μg/mL in water
Description: Experiments were performed using an Applied Biosystem API III+mass spectrometer equipped with a TurboIonSpray source, a Triple Quadrupole analyzer, operating in positive ion mode.
The mass spectra were obtained in electrospray positive mode on a Finnigan LCQ^Deca ion trap instrument previously tuned and calibrated in electrospray mode using Ultramark 1621, caffeine and MRFA (L-metionyl-arginyl-phenilalanyl-arginine).
The mass spectra were obtained in electrospray positive mode on a Finnigan LCQ^Deca ion trap instrument previous tuned and calibrated in electrospray mode using Ultramark 1621, caffeine and MRFA (L-metionyl-arginyl-phenilalanyl-arginine).

Human albumin = Human albumin (Homo sapiens, UniProt P02768); test: Protein binding by isothermal titration microcalorimetry; settings: for Calculated percent Binding, Human albumin: albumin 6×10^−4 M assumed
Chain of Human albumin (P02768 25-609): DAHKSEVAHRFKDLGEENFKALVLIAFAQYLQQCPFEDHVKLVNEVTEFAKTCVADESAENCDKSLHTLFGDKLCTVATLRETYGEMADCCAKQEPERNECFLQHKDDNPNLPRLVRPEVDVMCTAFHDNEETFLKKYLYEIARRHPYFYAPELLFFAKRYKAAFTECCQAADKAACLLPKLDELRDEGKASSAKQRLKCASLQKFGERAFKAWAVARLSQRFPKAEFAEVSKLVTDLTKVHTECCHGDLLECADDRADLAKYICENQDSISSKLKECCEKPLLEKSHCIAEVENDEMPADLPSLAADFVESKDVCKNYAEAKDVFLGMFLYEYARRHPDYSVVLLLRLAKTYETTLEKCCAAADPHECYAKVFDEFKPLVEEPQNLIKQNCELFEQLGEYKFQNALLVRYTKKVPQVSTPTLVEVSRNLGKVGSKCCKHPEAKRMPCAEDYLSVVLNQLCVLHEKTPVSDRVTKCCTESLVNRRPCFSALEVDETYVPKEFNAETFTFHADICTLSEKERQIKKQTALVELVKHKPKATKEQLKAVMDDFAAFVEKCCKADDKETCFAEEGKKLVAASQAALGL
Description: (§2) Integrated heat effects, after correction for heats of dilution, were analyzed by non-linear regression using a simple single-site binding model with the standard Microcal ORIGIN software package. Raw data (μcal/sec) for each injection were integrated to give the total heat effect per addition, then divided by amount of injectant to give kcal/mole of injectant. The same integration was applied for control dilution effects, and this was subtracted from the actual titration data. This provided a differential of the binding curve in which the extent of binding is proportional to the total heat liberated (or absorbed). This was then analyzed by non-linear regression methods in terms of various standard binding models.

human α-glycoprotein = test: as above; settings: protein […]10^−5 M assumed
Description: as §2

vancomycin hydrochloride (peptide)
Kd [1]: 1450 nM
ΔH [1]: -9.49 kcal/mol
ΔS [1]: -6.8 eu
Kd [2]: 2940 nM and 2780 nM
ΔH [2]: -10.7 kcal/mol and -12.9 kcal/mol
ΔS [2]: -10.6 eu and -17.8 eu
Kd [3]: 3450 nM
ΔH [3]: -10.1 kcal/mol
ΔS [3]: -8.8 eu

CN[C@H](CC(C)C)C(=O)N[C@H]1C(=O)N[C@@H](CC(N)=O)C(=O)N[C@H]2C(=O)N[C@H]3C(=O)N[C@H](C(=O)N[C@H](C(=O)O)c4cc(O)cc(O)c4-c4cc3ccc4O)[C@H](O)c3ccc(c(Cl)c3)Oc3cc2cc(c3O[C@@H]2O[C@H](CO)[C@@H](O)[C@H](O)[C@H]2O[C@H]2C[C@](C)(N)[C@H](O)[C@H](C)O2)Oc2ccc(cc2Cl)[C@H]1O [Vancomycin]
Binding to dipeptide (D-Ala-D-Ala) (D-Ala-D-Ala): no evidence of binding
Binding to Lys-D-Ala-D-Lactate (Lys-D-Ala-D-Lactate): no evidence of binding
Kass ([4]; 10 °C, [HSA] 0 μM): 6.90E+05 L M^−1
Kass ([4]; 25 °C, [HSA] 0 μM): 3.40E+05 L M^−1 and 3.60E+05 L M^−1
Kass ([4]; 25 °C, [HSA] 513 μM): 2.90E+05 L M^−1
Binding to tri-peptide in the presence of HSA vs absence ([4]; control ITC experiments): comparable to those seen in the absence of HSA

Teicoplanin
Multimers in solution (ESI-MS) [5]: does not show multimeric complexes in solution
Apparent binding affinity Ka, Human albumin (Human albumin; 25° C., pH 7.4, ± SD of fit): 0.96 (±0.08) ×10^5 M^−1
Calculated percent Binding, Human albumin (Human albumin; antibiotic 1 μM): 98.3%
Calculated percent Binding, Human albumin (Human albumin; antibiotic 10 μM): 98.3%
Calculated percent Binding, Human albumin (Human albumin; antibiotic 100 μM): 98.0%
Calculated percent Binding, Human α-glycoprotein (human α-glycoprotein; antibiotic 1 μM): 9.6%
Calculated percent Binding, Human α-glycoprotein (human α-glycoprotein; antibiotic 10 μM): 9.1%
Calculated percent Binding, Human α-glycoprotein (human α-glycoprotein; antibiotic 100 μM): 6.0%
